# Results from PubChem BioAssay (NCI).
#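 Test compounds were applied to cells in 96-well plates for 48 hours at 5 doses. Here, GI50 denotes the concentration required for 50% inhibition of growth. TGI is the concentration that stops growth completely.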
# Legend:
# Test in all cases: NCI tumour cell line growth inhibition, 48 h
# [1] = system: UO-31 renal
# [2] = system: SR leukemia
# [3] = system: SNB-19 CNS
# [4] = system: OVCAR-3 ovarian
# [5] = system: NCI-H23 lung
# [6] = system: SN12C renal
# [7] = system: RXF 393 renal
# [8] = system: OVCAR-5 ovarian
# [9] = system: SK-MEL-2 melanoma
# [10] = system: MCF7 breast
# [11] = system: HCC-2998 colon
# [12] = system: SF-539 CNS
# [13] = system: CCRF-CEM leukemia
# [14] = system: BT-549 breast
# [15] = system: SK-MEL-5 melanoma
# [16] = system: ACHN renal
# [17] = system: SK-MEL-28 melanoma
# [18] = system: LOX IMVI melanoma
# [19] = system: 786-0 renal
# [20] = system: U251 CNS
# [21] = system: MDA-MB-435
# [22] = system: PC-3 prostate
# [23] = system: K-562 leukemia
# [24] = system: HS 578T breast
# [25] = system: MALME-3M melanoma
# [26] = system: UACC-62 melanoma
# [27] = system: A498 renal
# [28] = system: SF-268 CNS
# [29] = system: COLO 205 colon
# [30] = system: MOLT-4 leukemia
# [31] = system: KM12 colon
# [32] = system: SF-295 CNS
# [33] = system: UACC-257 melanoma
# [34] = system: HL-60(TB) leukemia
# [35] = system: HT29 colon
# [36] = system: RPMI-8226 leukemia
# [37] = system: OVCAR-4 ovarian
# [38] = system: HOP-62 NSCLC
# [39] = system: TK-10 renal
# [40] = system: MDA-MB-231 breast
# [41] = system: SK-OV-3 ovarian
# [42] = system: EKVX NSCLC
# [43] = system: CAKI-1 renal
# [44] = system: NCI/ADR-RES ovarian
# [45] = system: MDA-MB-468 breast
# [46] = system: T-47D breast
# [47] = system: OVCAR-8 ovarian
# [48] = system: IGROV1 ovarian
# [49] = system: NCI-H226 lung
# [50] = system: SW-620 colon
# [51] = system: HCT-15 colon
# [52] = system: SNB-75 CNS
# [53] = system: DU-145 prostate
# [54] = system: A549 NSCLC
# [55] = system: NCI-H522 lung
# [56] = system: M14 melanoma
# [57] = system: HOP-92 NSCLC
# [58] = system: NCI-H460 lung
smiles,measurement,setting,value
CCCCSc1nc(Nc2ccc(/C(C)=N/NC(N)=S)cc2)c(C#N)c(-c2ccc(F)cc2)n1,GI50,[1],0.761 µM
same,TGI,[1],3.01 µM
same,GI50,[2],8.62 µM
same,TGI,[2],> 100 µM
same,GI50,[3],2.51 µM
same,TGI,[3],8.31 µM
same,GI50,[4],2.57 µM
same,TGI,[4],10.1 µM
same,GI50,[5],1.56 µM
same,TGI,[5],4.69 µM
same,GI50,[6],11.8 µM
same,TGI,[6],57 µM
same,GI50,[7],1.97 µM
same,TGI,[7],5.49 µM
same,GI50,[8],12.5 µM
same,TGI,[8],50.5 µM
same,GI50,[9],4.4 µM
same,TGI,[9],20 µM
same,GI50,[10],0.893 µM
same,TGI,[10],11.4 µM
same,GI50,[11],3.29 µM
same,TGI,[11],18.7 µM
same,GI50,[12],1.4 µM
same,TGI,[12],4.49 µM
same,GI50,[13],0.814 µM
same,TGI,[13],> 100 µM
same,GI50,[14],6.6 µM
same,TGI,[14],28.1 µM
same,GI50,[15],2.3 µM
same,TGI,[15],12.5 µM
same,GI50,[16],0.858 µM
same,TGI,[16],4.37 µM
same,GI50,[17],3.83 µM
same,TGI,[17],17.9 µM
same,GI50,[18],1.88 µM
same,TGI,[18],10.1 µM
same,GI50,[19],1.69 µM
same,TGI,[19],3.88 µM
same,GI50,[20],1.24 µM
same,TGI,[20],3.83 µM
same,GI50,[21],4.13 µM
same,TGI,[21],24.8 µM
same,GI50,[22],1.42 µM
same,TGI,[22],7.02 µM
same,GI50,[23],4.46 µM
same,TGI,[23],> 100 µM
same,GI50,[24],1.71 µM
same,TGI,[24],8.14 µM
same,GI50,[25],2.39 µM
same,TGI,[25],11.5 µM
same,GI50,[26],2.91 µM
same,TGI,[26],12 µM
same,GI50,[27],2.7 µM
same,TGI,[27],7.1 µM
same,GI50,[28],13.6 µM
same,TGI,[28],89.3 µM
same,GI50,[29],4.03 µM
same,TGI,[29],23.1 µM
same,GI50,[30],3.63 µM
same,TGI,[30],> 100 µM
same,GI50,[31],15.9 µM
same,TGI,[31],> 100 µM
same,GI50,[32],1.21 µM
same,TGI,[32],2.75 µM
same,GI50,[33],15.4 µM
same,TGI,[33],61.8 µM
same,GI50,[34],> 100 µM
same,TGI,[34],> 100 µM
same,GI50,[35],5.89 µM
same,TGI,[35],> 100 µM
same,GI50,[36],3.4 µM
same,TGI,[36],> 100 µM
same,GI50,[37],1.85 µM
same,TGI,[37],85.5 µM
same,GI50,[38],2.25 µM
same,TGI,[38],5.1 µM
same,GI50,[39],2.92 µM
same,TGI,[39],7.08 µM
same,GI50,[40],1.03 µM
same,TGI,[40],4.28 µM
same,GI50,[41],3.54 µM
same,TGI,[41],9.87 µM
same,GI50,[42],3.67 µM
same,TGI,[42],17.2 µM
same,GI50,[43],1.71 µM
same,TGI,[43],4.97 µM
same,GI50,[44],1.34 µM
same,TGI,[44],5.72 µM
same,GI50,[45],2.26 µM
same,TGI,[45],8.99 µM
same,GI50,[46],1.19 µM
same,TGI,[46],18 µM
same,GI50,[47],3.85 µM
same,TGI,[47],21.1 µM
same,GI50,[48],12 µM
same,TGI,[48],30.3 µM
same,GI50,[49],1.59 µM
same,TGI,[49],5.29 µM
same,GI50,[50],2.7 µM
same,TGI,[50],42.1 µM
same,GI50,[51],1.38 µM
same,TGI,[51],16.8 µM
same,GI50,[52],1.6 µM
same,TGI,[52],6.54 µM
same,GI50,[53],3.12 µM
same,TGI,[53],49.8 µM
same,GI50,[54],2.35 µM
same,TGI,[54],7.57 µM
same,GI50,[55],1.92 µM
same,TGI,[55],7.05 µM
same,GI50,[56],3.52 µM
same,TGI,[56],19.6 µM
same,GI50,[57],1.23 µM
same,TGI,[57],4.01 µM
same,GI50,[58],0.578 µM
same,TGI,[58],2.25 µM
